Test results: patent publication US7494976B2, “Caveolin peptides and their use as therapeutics” (Yale University, priority 2000, dated 2009)
“Also recorded” adds a separate entry of the source. Ends that are not written are not given here. Peptide text beside a SMILES is read from it.

What was measured:
[1] = Systemic arterial blood pressure and heart rate in mice; format: in vivo, mouse
prostacyclin production = assay: Prostacyclin release from mouse aortic rings (6-keto-PGF1α by EIA); conditions: ibuprofen 10 μM
Procedure: To further test the specificity of AP-Cav, Ach-induced prostacyclin production was measured. For measurement of prostacyclin release, after twenty hour incubation period, aortic segments (4-5 mm) were placed in sterile 48-well tissue culture plates with 300 μl of KHS at 37° C. for thirty minutes in an incubator. Then aliquots of […] were taken in order to measure the basal release of prostacyclin. Ach (1 μM) was added and the plate was kept in the incubator for an additional thirty minutes. Aliquots were then taken in order to measure the Ach-stimulated release of prostacyclin. This protocol was performed in absence or in presence of ibuprofen (10 μM). The aliquots were frozen and prostacyclin release was measured as the stable breakdown product, 6-keto-PGF1α, by EIA (Amersham).

isolated mouse aortas = assay: Sodium nitroprusside induced (endothelium independent) relaxation of mouse aorta; conditions: AP 30 μM, twenty hours; SNP 10 μM
isolated mouse aorta = assay: Ach-induced relaxation of isolated mouse aortic rings (organ bath); conditions: AP alone 30 μM, twenty hours incubation
Procedure: For isolated mouse aortic rings preparations, male C57 black mice (5-7 weeks of age) were anesthetized with methoxyflurane and sacrificed by exsanguination. The thoracic aorta was dissected and cut into cylindrical segments of three millimeters in length. Using a sterile 48-well tissue culture plate, each ring was incubated in a total volume of one ml with either peptides or vehicle (DMSO) diluted in DMEM supplemented with penicillin (100 units/ml), streptomycin (100 μg/ml) and L-glutamine (1 mM). The plate was incubated with 5% CO2. Following incubation with the peptides (one, six, twelve or twenty hours), rings were washed in oxygenated (95% O2-5% CO2) Krebs-Henseleit bicarbonate buffer solution (KHS) of the following composition (NaCl—118.3 mmol/L, KCl—4.7 mmol/L, CaCl2—2.5 mmol/L, MgSO4—1.2 mmol/L, KH2PO4—1.2 mmol/L, NaHCO3—25 mmol/L, glucose—5.6 mmol/L at 37° C. with ibuprofen (10 μM). The rings were suspended by two tungsten wires ([…] thickness) inserted into the lumen and mounted in a vessel myograph system (five ml chamber, Kent Scientific). The mouse aortas were submitted to a resting tension of 1.5 grams and isometric tension was recorded using a force transducer coupled to a MacLab data acquisition system. […] In some experiments concentration-response curves to the contractile effects of PE were monitored.

mouse aorta = assay: Uptake of biotinylated peptides into the vessel wall of mouse aorta; conditions: biotinylated peptides 100 μM, twenty hours, HRP staining
Procedure: The uptake of AP-Cav into the vessel wall was examined next. A biotinylated version of AP-Cav and AP-Cav-X was synthesized. After twenty hours of incubation with the biotinylated peptides (100 μM) or vehicle, rings were placed in a dish and washed twice with PBS (twenty minutes each time) with light shaking, in order to eliminate the excess of biopeptide that could deposit over the tissue. Then the rings were embedded in OCT medium and cross sections ([…] thickness) were obtained for staining with an avidin-horseradish peroxidase complex and reactivity was detected with 3-amino-9-ethylcarbazole (AEC).

[2] = conditions of the edema study, n=4 mice

RQIKIWFQNRRMKWKKDGIWKASFTTFTVTKYWFYR [AP-Cav]
heart rate [1, 2]: 320±29 beats per minute | systemic arterial blood pressure [1, 2]: 80±7 mm Hg | effect on blood pressure when delivered in vivo ([1]; preliminary evidence): do not increase blood pressure

CC(C)Cc1ccc(C(C)C(=O)O)cc1 (centres unmarked) [ibuprofen]
Ach-induced prostacyclin production (6-keto-PGF1α) (prostacyclin production): abolished

AP: Antennapedia internalization sequence (RQIKIWFQNRRMKWKK), SEQ ID NO: 10, alone (Drosophila melanogaster; DOMAIN (1)..(16) Homeodomain, internalization sequence)
effect on vasorelaxant properties of sodium nitroprusside (isolated mouse aortas): had no effect | effect on Ach-induced relaxation (isolated mouse aorta): did not influence Ach-induced relaxation; also recorded: does not affect Ach induced relaxations

CC[C@H](C)[C@H](NC(=O)CNC(=O)[C@H](Cc1c[nH]c2ccccc12)NC(=O)[C@H](CCCCN)NC(=O)[C@H](CCCCN)NC(=O)[C@H](Cc1c[nH]c2ccccc12)NC(=O)[C@H](CCCCN)NC(=O)[C@H](CCSC)NC(=O)[C@H](CCCNC(=N)N)NC(=O)[C@H](CCCNC(=N)N)NC(=O)[C@H](CC(N)=O)NC(=O)[C@H](CCC(N)=O)NC(=O)[C@H](Cc1ccccc1)NC(=O)[C@H](Cc1c[nH]c2ccccc12)NC(=O)[C@@H](NC(=O)[C@H](CCCCN)NC(=O)[C@@H](NC(=O)[C@H](CCC(N)=O)NC(=O)[C@H](CCCNC(=N)N)NC(=O)CCCCCNC(=O)CCCC[C@@H]1SC[C@@H]2NC(=O)N[C@@H]21)[C@@H](C)CC)[C@@H](C)CC)C(=O)N[C@@H](CC(=O)O)C(=O)N[C@@H](CCCCN)C(=O)N[C@@H](C)C(=O)N[C@@H](Cc1ccccc1)C(=O)N[C@@H](Cc1ccccc1)C(=O)N[C@H](C(=O)N[C@H](C(=O)N[C@@H](CO)C(=O)N[C@H](C(=O)N[C@H](C(=O)N[C@H](C(=O)N[C@@H](Cc1ccc(O)cc1)C(=O)N[C@@H](CCCCN)C(=O)N[C@@H](Cc1c[nH]c2ccccc12)C(=O)N[C@@H](Cc1ccccc1)C(=O)N[C@@H](CCCNC(=N)N)C(=O)N[C@@H](Cc1ccc(O)cc1)C(=O)O)[C@@H](C)O)C(C)C)[C@@H](C)O)[C@@H](C)O)[C@@H](C)O [Biot-AP-Cav-X] (HELM PEPTIDE1{[O=C1N[C@H]2[C@H](CS[C@H]2CCCCC(=O)[*:2])N1].[O=C(CCCCCN[*:1])[*:2]].R.Q.I.K.I.W.F.Q.N.R.R.M.K.W.K.K.W.G.I.D.K.A.F.F.T.T.S.T.V.T.Y.K.W.F.R.Y}$$$$V2.0; N-terminus and C-terminus assumed)
uptake into the vessel wall (mouse aorta): uptake of both AP-Cav and AP-Cav-X into the endothelium and adventitial lining of the vessel

CC[C@H](C)[C@H](NC(=O)CNC(=O)[C@H](CC(=O)O)NC(=O)[C@H](CCCCN)NC(=O)[C@H](CCCCN)NC(=O)[C@H](Cc1c[nH]c2ccccc12)NC(=O)[C@H](CCCCN)NC(=O)[C@H](CCSC)NC(=O)[C@H](CCCNC(=N)N)NC(=O)[C@H](CCCNC(=N)N)NC(=O)[C@H](CC(N)=O)NC(=O)[C@H](CCC(N)=O)NC(=O)[C@H](Cc1ccccc1)NC(=O)[C@H](Cc1c[nH]c2ccccc12)NC(=O)[C@@H](NC(=O)[C@H](CCCCN)NC(=O)[C@@H](NC(=O)[C@H](CCC(N)=O)NC(=O)[C@H](CCCNC(=N)N)NC(=O)CCCCCNC(=O)CCCC[C@@H]1SC[C@@H]2NC(=O)N[C@@H]21)[C@@H](C)CC)[C@@H](C)CC)C(=O)N[C@@H](Cc1c[nH]c2ccccc12)C(=O)N[C@@H](CCCCN)C(=O)N[C@@H](C)C(=O)N[C@@H](CO)C(=O)N[C@@H](Cc1ccccc1)C(=O)N[C@H](C(=O)N[C@H](C(=O)N[C@@H](Cc1ccccc1)C(=O)N[C@H](C(=O)N[C@H](C(=O)N[C@H](C(=O)N[C@@H](CCCCN)C(=O)N[C@@H](Cc1ccc(O)cc1)C(=O)N[C@@H](Cc1c[nH]c2ccccc12)C(=O)N[C@@H](Cc1ccccc1)C(=O)N[C@@H](Cc1ccc(O)cc1)C(=O)N[C@@H](CCCNC(=N)N)C(=O)O)[C@@H](C)O)C(C)C)[C@@H](C)O)[C@@H](C)O)[C@@H](C)O [Biot-AP-Cav] (HELM PEPTIDE1{[O=C1N[C@H]2[C@H](CS[C@H]2CCCCC(=O)[*:2])N1].[O=C(CCCCCN[*:1])[*:2]].R.Q.I.K.I.W.F.Q.N.R.R.M.K.W.K.K.D.G.I.W.K.A.S.F.T.T.F.T.V.T.K.Y.W.F.Y.R}$$$$V2.0; N-terminus and C-terminus assumed)
uptake into the vessel wall (mouse aorta): uptake of both AP-Cav and AP-Cav-X into the endothelium and adventitial lining of the vessel
